In general, IC50 refers to the concentration needed to halve the response being measured. One may read the GI50 as the concentration giving 50% growth inhibition. Usually MTD stands for the highest dose tested that stayed within the study's limit of toxicity.

The record followed here is ChEMBL document CHEMBL6115010, “Targeting glioma with heteroaromatic alkaloids: A review of potential therapeutics” (Bioorg Med Chem, 2025).

In brackets after ≈: the same amount, converted by molar mass. Some results are limits rather than exact numbers.

The test system of series [1] is U-251. In words: Antiproliferative activity against human U-251MG cells assessed as reduction in cell viability incubated for 72 hrs by SRB assay. In kind it is functional, cell-based. The note with it: U-251, 72 h. In general terms: In SRB staining, fixed cells bind dye roughly in proportion to their protein.
The test system of series [2] is U-87 MG. In words: Cytotoxicity against human U-87 MG cells by resazurin dye based assay. In kind it is functional, cell-based, U-87MG ATCC. For orientation: Alamar Blue is a resazurin reagent that responds to reducing activity.
Series [3] can be described thus: Cytotoxicity against human U87MG.deltaEGFR cells by resazurin dye based assay. It is filed as functional, cell-based.
Series [4] deals with U-251. In words: Growth inhibition of human U-251 cells measured after 48 hrs by sulforhodamine B assay. It is filed as functional.
A further series concerns HaCaT. In words: Growth inhibition of human HaCaT cells measured after 48 hrs by sulforhodamine B assay. In kind it is functional.
Series [5] has as its system SF-268. Nature of the series: Cytotoxicity against human SF-268 cells assessed as reduction in cell viability incubated for 4 days by MTT assay. To be noted: SF-268, 96 h, time 4 day. It is filed as functional. (Tetrazolium dyes change colour on reduction, which living cells bring about.)
Another series deals with RPMI 8402. Nature of the series: Cytotoxicity against human RPMI 8402 cells assessed as reduction in cell viability incubated for 4 days by MTT assay. It is filed as functional, cell-based. To be noted: RPMI 8402, 96 h.
The test system of series [6] is T98G. Nature of the series: Growth inhibition of human T98G cells measured after 72 hrs by MTT assay. It is filed as functional.
The nature of series [7]: Growth inhibition of human U373 MG cells measured after 72 hrs by MTT assay. It is filed as functional, U-373MG ATCC.
For another series, the system named is Hs68. In words: Growth inhibition of human Hs68 cells measured after 72 hrs by MTT assay. It is filed as functional.
Series [8] relates to U-87 MG. Nature of the series: Growth inhibition of human U-87 MG cells measured after 72 hrs by MTT assay. It is filed as functional, U-87MG ATCC.
Series [9] concerns U-87 MG. In words: Antiproliferative activity against human U-87 MG cells assessed as reduction in cell viability incubated for 72 hrs by MTT assay. In kind it is functional, cell-based, U-87MG ATCC.
Series [10] concerns U-251. In words: Antiproliferative activity against human U-251MG cells assessed as reduction in cell viability incubated for 72 hrs by MTT assay. It is filed as functional, cell-based. To be noted: U-251, 72 h.
The subject of another series is U-118-MG. In words: Antiproliferative activity against human U-118-MG cells assessed as reduction in cell viability incubated for 72 hrs by MTT assay. In kind it is functional, cell-based.
Series [11] can be described thus: Cytotoxicity against HEK293T cells assessed as reduction in cell viability incubated for 72 hrs by MTS assay. In kind it is toxicity, cell-based, HEK-293T. To be noted: human.
Series [12] relates to U-87 MG. In words: Antiproliferative activity against human U-87 MG cells assessed as reduction in cell viability incubated for 72 hrs by WST-8 reagent based assay. In kind it is functional, U-87MG ATCC.
Series [13] has as its system T98G. In words: Antiproliferative activity against human T98G cells assessed as reduction in cell viability incubated for 72 hrs by WST-8 reagent based assay. It is filed as functional.
Series [14] can be described thus: Inhibition of colony formation in human U-251MG cells assessed as reduction in number of cell clone measured after 14 days by crystal violet staining based microscopic analysis. It is filed as functional. To be noted: 336 h.
Series [15] relates to T98G. Nature of the series: Inhibition of colony formation in human T98G cells assessed as reduction in number of cell clone measured after 14 days by crystal violet staining based microscopic analysis. The note with it: 336 h. In kind it is functional.
The test system of series [16] is T98G. In words: Anticancer activity against human T98G cells assessed as reduction in cell viability. It is filed as functional, cell-based.
Series [17] can be described thus: Cytotoxicity against human U373 MG cells assessed as reduction in cell growth incubated for 24 hrs by MTT colorimetric assay. It is filed as functional, cell-based, U-373MG ATCC.
The test system of another series is SW1088. In words: Cytotoxicity against human SW1088 cells assessed as reduction in cell growth incubated for 24 hrs by MTT colorimetric assay. It is filed as functional, cell-based. To be noted: SW1088, 24 h.
The nature of series [18]: Toxicity in ip dosed B6D2F1 mouse assessed as maximum tolerated dose measured after 28 days. In kind it is organism-based. To be noted: in vivo, time 28 day.
For series [19], the system named is SF-268. Nature of the series: Cytotoxicity against human SF-268 cells assessed as reduction in cell viability incubated for 72 hrs by MTT assay. To be noted: SF-268, 72 h. It is filed as functional, cell-based.
The test system of series [20] is T98G. Nature of the series: Cytotoxicity activity against human T98G cells assessed as reduction in cell growth measured for 48 hrs by MTS reagent based assay. It is filed as functional.
A short description of series [21]: Cytotoxicity against human GSC-3 cells assessed as reduction in cell growth incubated for 72 hrs by MTS assay. In kind it is functional, cell-based. To be noted: GSC-3, 72 h.
Series [22] can be described thus: Cytotoxicity against human GSC-18 cells assessed as reduction in cell growth incubated for 72 hrs by MTS assay. In kind it is functional, cell-based. To be noted: GSC18, 72 h.
Series [23] in a line: Cytotoxicity against rat ASK cells assessed as reduction in cell growth by SRB assay. To be noted: read-out: ED50 (the source's name). In kind it is functional.
A further series concerns CCF-STTG1. In words: Cytotoxicity against human CCF-STTG1 cells assessed as reduction in cell growth incubated for 24 hrs by MTT assay. To be noted: CCF-STTG1, 24 h. In kind it is functional, cell-based.
Series [24] in a line: Cytotoxicity against human CHG-5 cells assessed as reduction in cell growth incubated for 24 hrs by MTT assay. In kind it is functional, cell-based. The note with it: CHG-5, 24 h.
A short description of series [25]: Cytotoxicity against human SHG-44 cells assessed as reduction in cell growth incubated for 24 hrs by MTT assay. In kind it is functional, cell-based. To be noted: SHG-44, 24 h.
The subject of series [26] is U-251. In words: Cytotoxicity against human U-251MG cells assessed as reduction in cell growth incubated for 24 hrs by MTT assay. In kind it is functional, cell-based. The note with it: U-251, 24 h.

Turning to `CC1=NC(C(=O)O)Cc2c1[nH]c1cc([C@H](c3c[nH]c4ccccc34)[C@@H](O)CO)[nH]c21` (some centres not stated), the concentration for half-maximal inhibition (IC50) in the series on U-251 [1] stood at 26.1 µM.

As to `COc1cc(OC)c2c(=O)c3ccccc3n(C)c2c1`, the concentration for half-maximal inhibition (IC50) with U-87 MG [2] amounted to 17.6 µM; in series [3] it was 8.88 µM.

As to `CC1=N[C@H](C(=O)O)CC2c3[nH]ccc3NC12` (some centres not stated), in the series on U-251 [1], the IC50 is 36.3 µM.

For the molecule `COc1c2c(cc3[nH]c4ccccc4c(=O)c13)OCO2`, the IC50 with U-87 MG [2] was 89.3 µM; in series [3], 5.72 µM.

Turning to `COc1cc2c(cc1OC)-c1cc3ccc(OC)c(OC)c3c[n+]1CC2` [PALMITINE], the GI50 in the series with U-251 [4] was found to be 16.2 µM; with HaCaT, 122 µM; in the series on SF-268 [5], 3 µg/mL. The IC50 with RPMI 8402 is 10 µg/mL.

With `CO[C@@H]1C=C[C@]23c4cc5c(cc4[C@@H](O)N(C[C@H]2O)[C@@H]3C1)OCO5`, the GI50 came out at 14 µM in the series on T98G [6], 7 µM in [7], 4 µM in the series on Hs68 and 6 µM with U-87 MG [8].

As to `Cn1nnc2c(C(N)=O)ncn2c1=O` [TEMOZOLOMIDE], the half-inhibitory concentration (IC50) with U-87 MG [9] was 135 µM; in the series with U-251 [10], above 320 µM; with U-118-MG, above 320 µM. In addition, the concentration for half-maximal inhibition (IC50) at 72 h in series [11] was above 50 µg/mL. Moreover, the EC50 was 42 µM in the series on U-87 MG [12]; 390 µM in the series on T98G [13]; 23 µM in series [14]; 430 µM in the series with T98G [15]; 150 µM in the series on T98G [16].

Regarding `O=C1c2cccnc2-c2nccc3c2c1nc1ccccc13` [ASCIDIDEMIN], the IC50 worked out at 0.5 µM in series [17] and 0.6 µM with SW1088. Also, the MTD at 672 h in series [18] amounted to 40 mg/kg.

As for `CC[C@H](/C=C(C)/C=C/C(=O)c1c(O)c(-c2ccc(O)cc2)c[nH]c1=O)CO`, the IC50 in the series with SF-268 [19] amounted to 31.1 µM.

Consider `COc1cc2c(cc1OC)[C@H](Cc1cc(O)c(OC)c(Oc3ccc(C=O)cc3)c1)N(C)CC2`, for which, in series [11], the half-inhibitory concentration (IC50) at 72 h is 20 µg/mL (≈ 43.1 µM).

As to `C=CC(C)(C)[C@@]12C[C@H]3C(=O)N[C@@H](Cc4ccccc4)C(=O)N3[C@@H]1N(C(C)=O)c1ccccc12`, in the series with T98G [20], the IC50 was determined as 20 µg/mL (≈ 45.1 µM).

`O=C1c2c(O)ccnc2-c2nccc3c2c1nc1ccccc13`: the half-maximal inhibitory concentration (IC50) (in [17]; in the series with SW1088) was 6 µM throughout. In addition, the maximal tolerated dose (MTD) at 672 h in series [18] is above 160 mg/kg.

Take `O=C1c2cccnc2-c2nccc3c2c1nc1cc(Br)ccc13`: the IC50 in series [17] came out at 0.6 µM; in the series on SW1088, 0.4 µM. The maximum tolerated dose (MTD) at 672 h in series [18] came to 20 mg/kg.

`COc1cc2c(cc1Oc1c(C=O)ccc(OC)c1OC)C(=O)c1nccc3c(OC)c(OC)c(OC)c-2c13`: the IC50 in series [21] came to 2.36 µg/mL (≈ 4.44 µM); in [22], 2.55 µg/mL (≈ 4.8 µM). In series [23], the EC50 was 10.2 µg/mL (≈ 19.2 µM).

On to `COC(=O)N1CCc2cc(O)c(OC)c3c2[C@@H]1Cc1ccc(OC)c(O)c1-3`, for which the concentration for half-maximal inhibition (IC50) in the series on CCF-STTG1 stood at 10.4 µM; in [24], 12.2 µM; in series [25], 11.9 µM; in the series on U-251 [26], 11.9 µM.
